This series in a line: pKa measurement by titration (AT-210 device, neutralization middle point). The series is classed as physicochemical. As to conditions: —NHSO2— dissociation group, 25° C., THF/H2O=6/4. The protocol: The measurement of the pKa value in the present invention will be described below. […] 20 mL of H2O were then added to completely dissolve the material. Subsequently, 0.25 mL of an aqueous 0.2 N hydrochloric acid solution was added, and the resultant solution was stirred. An aqueous 0.2 N NaOH solution was dropped into this solution, and the pKa value was obtained from the neutralization middle point. All pKa values in the present invention were obtained under the above measurement conditions.

As for `CCCCCCCCCCCCCCCCCCOc1ccc(C(C)(C)C)cc1S(=O)(=O)NC(C)c1n[nH]c2cc(C(C)(C)C)nn12` (centres unmarked) [Compound G-1], the pKa value entry is “more than 12”. As for `CCCCCCCCCCCCCCCC(C(=O)O)C(=O)Nc1cccc(C(=O)Nc2ccc(CCCc3n[nH]c4cc(C(C)(C)C)nn34)cc2)c1` (centres unmarked) [Compound G-2], the pKa value entry was “more than 12”. For `CCCCCCCCOc1ccc(C(C)(C)CC(C)(C)C)cc1S(=O)(=O)Nc1cc(S(=O)(=O)Nc2c(C)cc(C)c(-c3n[nH]c4cc(CC)nn34)c2C)ccc1Cl` [Compound G-3], the pKa value entry is “more than 12”. Turning to `CCCCCCCCOc1ccc(NS(=O)(=O)c2cc(C(C)(C)CC(C)(C)C)ccc2OCCOc2ccc(C)cc2)cc1S(=O)(=O)NC(C)c1n[nH]c2cc(C(C)(C)C)nn12` (centres unmarked) [Compound G-4], the pKa value entry was “more than 12”. `CCCCCCCCOc1ccc(C(C)(C)CC(C)(C)C)cc1S(=O)(=O)Nc1ccc(OCCOC)c(S(=O)(=O)NC(C)(C)c2n[nH]c3c(Cl)c(C(C)(C)C)nn23)c1` [Compound G-5]: the pKa value entry was “more than 12”. Next, `CCCCCCCCOc1ccc(NS(=O)(=O)c2cc(C(C)(C)CC(C)(C)C)ccc2OCCCCCCCC)cc1S(=O)(=O)NCC(C)c1n[nH]c2c(Cl)c(C(C)(C)C)nn12` (centres unmarked) [Compound G-6]: “more than 12”; `CCCCCCCCCCCCC(Oc1ccc(NS(=O)(=O)c2ccc(S(N)(=O)=O)cc2)cc1)c1n[nH]c2c(Cl)c(C)nn12` (centres unmarked) [Compound G-7]: “more than 12”; `CCCCCCCCOc1ccc(NS(=O)(=O)c2cc(C(C)(C)CC(C)(C)C)ccc2OCCCCCCCC)cc1S(=O)(=O)NCC(C)c1n[nH]c2cc(CC)nn12` (centres unmarked) [Compound G-9]: “more than 12”.

The values above are taken from patent US6468729B2, “Silver halide photographic light-sensitive material” (Fuji Photo Film Co., Ltd., priority 2000, dated 2002).
